According to PMC5218480 (PLoS ONE, 2017):

System: MV-4-11 cells
Assay: Gene expression microarray analysis (Affymetrix PrimeView) and GSEA
Assay type: cell-based, human
Set-up: RFU PODN (11730768_x_at) / Fold change /veh PODN (11730768_x_at) / RFU LINC00158 (11744669_a_at) / Fold change /veh LINC00158 (11744669_a_at) / RFU DUSP10 (11751237_a_at) / Fold change /veh DUSP10 (11751237_a_at) / RFU ID3 (11757404_x_at) / Fold change /veh ID3 (11757404_x_at) / RFU PLEKHG5 (11737974_s_at) / Fold change /veh PLEKHG5 (11737974_s_at) / RFU LRRC4B (11730491_at) / Fold change /veh LRRC4B (11730491_at) / RFU GIMAP4 (11747438_a_at) / Fold change /veh GIMAP4 (11747438_a_at) / RFU KRT8 (11758183_x_at) / Fold change /veh KRT8 (11758183_x_at) / RFU CNN1 (11734310_a_at) / Fold change /veh CNN1 (11734310_a_at) / RFU VPS37D (11726825_at) / Fold change /veh VPS37D (11726825_at) / RFU C10orf10 (11716522_x_at) / Fold change /veh C10orf10 (11716522_x_at) / RFU KIR2DL2 /// KIR2DL4 /// KIR2DL5A /// KIR2DL5B /// KIR2DS1 /// KIR2DS2 /// KIR2DS3 /// KIR2DS4 /// KIR3DL3 /// KIR3DL3 /// KIR3DS1 (11738374_at) / Fold change /veh KIR2DL2 /// KIR2DL4 /// KIR2DL5A /// KIR2DL5B /// KIR2DS1 /// KIR2DS2 /// KIR2DS3 /// KIR2DS4 /// KIR3DL3 /// KIR3DL3 /// KIR3DS1 (11738374_at) / RFU C1QL1 (11718748_at) / Fold change /veh C1QL1 (11718748_at) / RFU TMPRSS4 (11747572_a_at) / Fold change /veh TMPRSS4 (11747572_a_at) / RFU HAMP (11756126_x_at) / Fold change /veh HAMP (11756126_x_at) / RFU RNFT2 (11725882_a_at) / Fold change /veh RNFT2 (11725882_a_at) / RFU NR4A2 (11747474_a_at) / Fold change /veh NR4A2 (11747474_a_at) / RFU ABCC12 (11746883_a_at) / Fold change /veh ABCC12 (11746883_a_at) / RFU TMEM136 (11760407_x_at) / Fold change /veh TMEM136 (11760407_x_at) / RFU CLDN22 /// WWC2 (11732394_at) / Fold change /veh CLDN22 /// WWC2 (11732394_at) / RFU HLA-DPB1 (11760878_x_at) / Fold change /veh HLA-DPB1 (11760878_x_at) / RFU SPINT1 (11716480_a_at) / Fold change /veh SPINT1 (11716480_a_at) / RFU GAP43 (11754022_s_at) / Fold change /veh GAP43 (11754022_s_at) / RFU A4GNT (11735810_at) / Fold change /veh A4GNT (11735810_at) / RFU PRB3 (11715151_x_at) / Fold change /veh PRB3 (11715151_x_at) / RFU TUBB4B (11761932_at) / Fold change /veh TUBB4B (11761932_at) / RFU CAPN14 (11732068_a_at) / Fold change /veh CAPN14 (11732068_a_at) / RFU TMCC2 (11721928_a_at) / Fold change /veh TMCC2 (11721928_a_at) / RFU IRGQ (11745062_a_at) / Fold change /veh IRGQ (11745062_a_at) / RFU FAM174B (11720279_a_at) / Fold change /veh FAM174B (11720279_a_at) / RFU TMPRSS4 (11748680_a_at) / Fold change /veh TMPRSS4 (11748680_a_at) / RFU FAM212B (11763350_a_at) / Fold change /veh FAM212B (11763350_a_at) / RFU PLEKHG5 (11743358_a_at) / Fold change /veh PLEKHG5 (11743358_a_at) / RFU ZSCAN30 (11745921_a_at) / Fold change /veh ZSCAN30 (11745921_a_at) / RFU CMKLR1 (11741424_a_at) / Fold change /veh CMKLR1 (11741424_a_at) / RFU LOC101060620 /// MAPK8IP1 (11723275_at) / Fold change /veh LOC101060620 /// MAPK8IP1 (11723275_at) / RFU SPTSSB (11747773_x_at) / Fold change /veh SPTSSB (11747773_x_at) / RFU PRSS12 (11739890_at) / Fold change /veh PRSS12 (11739890_at) / RFU BIN1 (11741810_x_at) / Fold change /veh BIN1 (11741810_x_at) / RFU WNT11 (11732464_a_at) / Fold change /veh WNT11 (11732464_a_at) / RFU C10orf10 (11716521_a_at) / Fold change /veh C10orf10 (11716521_a_at) / RFU C5orf56 (11738089_at) / Fold change /veh C5orf56 (11738089_at) / RFU CYB561 (11721691_x_at) / Fold change /veh CYB561 (11721691_x_at) / RFU ANKRD19P (11752326_a_at) / Fold change /veh ANKRD19P (11752326_a_at) / RFU OR2T12 /// OR2T33 /// OR2T8 (11738714_s_at) / Fold change /veh OR2T12 /// OR2T33 /// OR2T8 (11738714_s_at) / RFU VCAN (11748164_a_at) / Fold change /veh VCAN (11748164_a_at) / RFU JSRP1 (11732532_at) / Fold change /veh JSRP1 (11732532_at) / RFU KRTAP10-11 (11738290_x_at) / Fold change /veh KRTAP10-11 (11738290_x_at) / RFU MYO3A (11730013_a_at) / Fold change /veh MYO3A (11730013_a_at) / RFU EBF3 (11725865_a_at) / Fold change /veh EBF3 (11725865_a_at) / RFU CAMK2N1 (11719241_x_at) / Fold change /veh CAMK2N1 (11719241_x_at) / RFU C5orf56 (11738088_a_at) / Fold change /veh C5orf56 (11738088_a_at) / RFU OLFML3 (11715873_a_at) / Fold change /veh OLFML3 (11715873_a_at) / RFU LOC100653217 /// NTM (11731650_a_at) / Fold change /veh LOC100653217 /// NTM (11731650_a_at) / RFU MAPK11 (11762145_a_at) / Fold change /veh MAPK11 (11762145_a_at) / RFU FIZ1 (11724087_x_at) / Fold change /veh FIZ1 (11724087_x_at) / RFU OASL (11726364_x_at) / Fold change /veh OASL (11726364_x_at) / RFU SOX15 (11748057_x_at) / Fold change /veh SOX15 (11748057_x_at) / RFU CD79A (11719716_a_at) / Fold change /veh CD79A (11719716_a_at) / RFU HIST1H1D (11736915_at) / Fold change /veh HIST1H1D (11736915_at) / RFU CASKIN2 (11723855_a_at) / Fold change /veh CASKIN2 (11723855_a_at) / RFU LOC730098 (11760151_x_at) / Fold change /veh LOC730098 (11760151_x_at) / RFU OR4N2 (11742367_at) / Fold change /veh OR4N2 (11742367_at) / RFU PRRT2 (11749266_a_at) / Fold change /veh PRRT2 (11749266_a_at) / RFU SNX32 (11753110_a_at) / Fold change /veh SNX32 (11753110_a_at) / RFU CDHR5 (11726645_a_at) / Fold change /veh CDHR5 (11726645_a_at) / RFU RCAN1 (11760418_a_at) / Fold change /veh RCAN1 (11760418_a_at) / RFU FAM167A (11723789_a_at) / Fold change /veh FAM167A (11723789_a_at) / RFU FAM26E (11764081_at) / Fold change /veh FAM26E (11764081_at) / RFU ISYNA1 (11749810_s_at) / Fold change /veh ISYNA1 (11749810_s_at) / RFU ACY1 (11761880_at) / Fold change /veh ACY1 (11761880_at) / RFU 11764098_at / Fold change /veh 11764098_at / RFU SAMD14 (11745864_x_at) / Fold change /veh SAMD14 (11745864_x_at) / RFU NPB (11741838_a_at) / Fold change /veh NPB (11741838_a_at) / RFU TMPRSS6 (11731388_a_at) / Fold change /veh TMPRSS6 (11731388_a_at) / RFU KRTAP10-2 (11738614_at) / Fold change /veh KRTAP10-2 (11738614_at) / RFU ARHGAP8 /// PRR5-ARHGAP8 (11727945_x_at) / Fold change /veh ARHGAP8 /// PRR5-ARHGAP8 (11727945_x_at) / RFU KRTAP5-7 /// NADSYN1 (11734609_at) / Fold change /veh KRTAP5-7 /// NADSYN1 (11734609_at) / RFU RASL12 (11751679_a_at) / Fold change /veh RASL12 (11751679_a_at) / RFU CDKN2B (11736163_a_at) / Fold change /veh CDKN2B (11736163_a_at) / RFU PRF1 (11729649_at) / Fold change /veh PRF1 (11729649_at) / RFU, ZNF638 /// ZNF638-IT1 / Fold change vs veh, ZNF638 /// ZNF638-IT1 / RFU, PANK3 / Fold change vs veh, PANK3 / RFU, SH3YL1 / Fold change vs veh, SH3YL1 / RFU, ZEB2 / Fold change vs veh, ZEB2 / RFU, NRIP1 / Fold change vs veh, NRIP1 / RFU, PTTG1IP / Fold change vs veh, PTTG1IP / RFU, CAPN2 / Fold change vs veh, CAPN2 / RFU, MED14 / Fold change vs veh, MED14 / RFU, SNORA58 / Fold change vs veh, SNORA58 / RFU, C1orf63 / Fold change vs veh, C1orf63 / RFU, LRRFIP1 / Fold change vs veh, LRRFIP1 / RFU, NDUFAF7 / Fold change vs veh, NDUFAF7 / RFU, SLC12A2 / Fold change vs veh, SLC12A2 / RFU, IBTK / Fold change vs veh, IBTK / RFU, ESF1 / Fold change vs veh, ESF1 / Fold change vs veh, TMEM50B / RFU, TAOK1 / Fold change vs veh, TAOK1 / RFU, ACBD3 / Fold change vs veh, ACBD3 / RFU, TMA16 / Fold change vs veh, TMA16 / RFU, RWDD3 / Fold change vs veh, RWDD3 / RFU, BCAT1 / Fold change vs veh, BCAT1 / RFU, EDEM3 / Fold change vs veh, EDEM3 / RFU, TMEM33 / Fold change vs veh, TMEM33 / RFU, WDR75 / Fold change vs veh, WDR75 / RFU, AHCTF1 / Fold change vs veh, AHCTF1 / RFU, TFRC / Fold change vs veh, TFRC / RFU, ZDHHC17 / Fold change vs veh, ZDHHC17 / RFU, NOM1 / Fold change vs veh, NOM1 / RFU, ARL8B / Fold change vs veh, ARL8B / RFU, ZBTB11 / Fold change vs veh, ZBTB11 / RFU, TAMM41 / Fold change vs veh, TAMM41 / RFU, KIAA1704 /// LOC100996395 / Fold change vs veh, KIAA1704 /// LOC100996395 / RFU, ING1 / Fold change vs veh, ING1 / RFU, TRMT61B / Fold change vs veh, TRMT61B / RFU, FUBP3 / Fold change vs veh, FUBP3 / RFU, TP53 / Fold change vs veh, TP53 / RFU, TNKS2 / Fold change vs veh, TNKS2 / RFU, ZFP14 / Fold change vs veh, ZFP14 / RFU, ACTR2 / Fold change vs veh, ACTR2 / RFU, PPP3R1 / Fold change vs veh, PPP3R1 / RFU, PIK3R1 / Fold change vs veh, PIK3R1 / RFU, HNRNPA1 / Fold change vs veh, HNRNPA1 / RFU, RNF170 / Fold change vs veh, RNF170 / RFU, ZNF28 / Fold change vs veh, ZNF28 / RFU, RNGTT / Fold change vs veh, RNGTT / RFU, OGT / Fold change vs veh, OGT / RFU, BRD1 / Fold change vs veh, BRD1 / RFU, MARS / Fold change vs veh, MARS / RFU, ZNF655 / Fold change vs veh, ZNF655 / RFU, FAHD1 / Fold change vs veh, FAHD1 / RFU, BDP1 / Fold change vs veh, BDP1 / RFU, LRRCC1 / Fold change vs veh, LRRCC1 / RFU, ARID1A / Fold change vs veh, ARID1A / RFU, ZNF146 / Fold change vs veh, ZNF146 / RFU, ZNF330 / Fold change vs veh, ZNF330 / RFU, GPN3 / Fold change vs veh, GPN3 / RFU, C9orf123 / Fold change vs veh, C9orf123 / RFU, N4BP2L2 / Fold change vs veh, N4BP2L2 / RFU, ARFIP1 / Fold change vs veh, ARFIP1 / RFU, FAM179B / Fold change vs veh, FAM179B / RFU, BCL10 / Fold change vs veh, BCL10 / RFU, UHRF1BP1L / Fold change vs veh, UHRF1BP1L / RFU, BET1 / Fold change vs veh, BET1 / RFU, CNOT2 / Fold change vs veh, CNOT2 / RFU, ZNF268 / Fold change vs veh, ZNF268 / Fold change vs veh, ZNF507 / RFU, DGCR2 / Fold change vs veh, DGCR2 / RFU, WDSUB1 / Fold change vs veh, WDSUB1 / Fold change vs veh, HSP90B1 /// MIR3652 / RFU, ADSS / Fold change vs veh, ADSS / RFU, GK / Fold change vs veh, GK / RFU, ZNF148 / Fold change vs veh, ZNF148 / RFU, TAF9 / Fold change vs veh, TAF9 / RFU, SLC1A5 / Fold change vs veh, SLC1A5 / RFU, SLMO2 / Fold change vs veh, SLMO2 / RFU, ABCC4 / Fold change vs veh, ABCC4 / RFU, LOC101060439 /// RAP1B / Fold change vs veh, LOC101060439 /// RAP1B / RFU, RFX7 / Fold change vs veh, RFX7 / RFU, GTPBP10 / Fold change vs veh, GTPBP10 / RFU, CNEP1R1 / Fold change vs veh, CNEP1R1 / RFU, BIVM-ERCC5 /// ERCC5 / Fold change vs veh, BIVM-ERCC5 /// ERCC5 / RFU, ILF3 / Fold change vs veh, ILF3 / RFU 11762660_at / Fold change /veh 11762660_at / RFU VCAN (11757783_s_at) / Fold change /veh VCAN (11757783_s_at) / RFU DDX43 (11728927_at) / Fold change /veh DDX43 (11728927_at) / RFU KRT8 (11758188_x_at) / Fold change /veh KRT8 (11758188_x_at) / RFU NKD1 (11759106_at) / Fold change /veh NKD1 (11759106_at) / RFU SRD5A1 (11742802_a_at) / Fold change /veh SRD5A1 (11742802_a_at) / RFU TPSAB1 /// TPSB2 (11721975_s_at) / Fold change /veh TPSAB1 /// TPSB2 (11721975_s_at) / RFU GSTM3 (11746129_a_at) / Fold change /veh GSTM3 (11746129_a_at) / RFU IL23R (11737362_x_at) / Fold change /veh IL23R (11737362_x_at) / RFU TMEM51 (11727254_a_at) / Fold change /veh TMEM51 (11727254_a_at) / RFU PIWIL2 (11732686_x_at) / Fold change /veh PIWIL2 (11732686_x_at) / RFU ORM1 (11744905_x_at) / Fold change /veh ORM1 (11744905_x_at) / RFU CCDC152 (11743942_at) / Fold change /veh CCDC152 (11743942_at) / RFU ECM1 (11717891_a_at) / Fold change /veh ECM1 (11717891_a_at) / RFU IL23R (11748794_a_at) / Fold change /veh IL23R (11748794_a_at) / RFU TNFAIP8L3 (11732012_x_at) / Fold change /veh TNFAIP8L3 (11732012_x_at) / RFU MBOAT4 (11741988_at) / Fold change /veh MBOAT4 (11741988_at) / RFU 11764193_at / Fold change /veh 11764193_at / RFU TMEM53 (11763286_at) / Fold change /veh TMEM53 (11763286_at) / RFU MAGEB2 (11727129_at) / Fold change /veh MAGEB2 (11727129_at) / RFU TMEM200A (11744735_a_at) / Fold change /veh TMEM200A (11744735_a_at) / RFU CCDC152 (11751479_a_at) / Fold change /veh CCDC152 (11751479_a_at) / RFU FAM211A (11726209_a_at) / Fold change /veh FAM211A (11726209_a_at) / RFU RGS16 (11746705_a_at) / Fold change /veh RGS16 (11746705_a_at) / RFU VCAN (11755009_s_at) / Fold change /veh VCAN (11755009_s_at) / RFU RHOB (11743442_s_at) / Fold change /veh RHOB (11743442_s_at) / RFU RGS16 (11720943_a_at) / Fold change /veh RGS16 (11720943_a_at) / RFU RGS16 (11720944_at) / Fold change /veh RGS16 (11720944_at) / RFU, VPS4B / Fold change vs veh, VPS4B / RFU, CREB1 / Fold change vs veh, CREB1 / RFU, DNAJC13 / Fold change vs veh, DNAJC13 / RFU, GNAQ / Fold change vs veh, GNAQ / RFU, CDK5R1 / Fold change vs veh, CDK5R1 / RFU, ZRANB3 / Fold change vs veh, ZRANB3 / RFU, CUL4A / Fold change vs veh, CUL4A / RFU, CCNY / Fold change vs veh, CCNY / RFU, UFL1 / Fold change vs veh, UFL1 / RFU, COG3 / Fold change vs veh, COG3 / RFU, DIAPH2 / Fold change vs veh, DIAPH2 / RFU, SKA2 / Fold change vs veh, SKA2 / RFU, AFF3 / Fold change vs veh, AFF3 / RFU, LMF1 / Fold change vs veh, LMF1 / RFU, IPO11 / Fold change vs veh, IPO11 / RFU, DFFB / Fold change vs veh, DFFB / RFU, FOXP1 / Fold change vs veh, FOXP1 / RFU, CARD8 / Fold change vs veh, CARD8 / RFU, STRN3 / Fold change vs veh, STRN3 / RFU, ADK / Fold change vs veh, ADK / RFU, RASSF2 / Fold change vs veh, RASSF2 / RFU, WIPF1 / Fold change vs veh, WIPF1 / RFU, LARP1B / Fold change vs veh, LARP1B / RFU, RASA1 / Fold change vs veh, RASA1 / RFU, RB1 / Fold change vs veh, RB1 / RFU, PPFIA1 / Fold change vs veh, PPFIA1 / RFU, MAT2A / Fold change vs veh, MAT2A / RFU, CCT5 / Fold change vs veh, CCT5 / RFU, WDR92 / Fold change vs veh, WDR92 / RFU, CUX1 / Fold change vs veh, CUX1 / RFU, TTC7A / Fold change vs veh, TTC7A / RFU, TMEM135 / Fold change vs veh, TMEM135 / RFU, DEPTOR / Fold change vs veh, DEPTOR / RFU, CPM / Fold change vs veh, CPM / RFU, DNAJB6 / Fold change vs veh, DNAJB6 / RFU, CACNA2D3 / Fold change vs veh, CACNA2D3 / RFU, DTX4 / Fold change vs veh, DTX4 / RFU, TFCP2 / Fold change vs veh, TFCP2 / RFU, GMCL1 /// GMCL1P1 / Fold change vs veh, GMCL1 /// GMCL1P1 / RFU, AEBP2 / Fold change vs veh, AEBP2 / RFU, SNHG1 /// SNORD22 /// SNORD25 /// SNORD26 /// SNORD27 /// SNORD28 /// SNORD29 /// SNORD31 / Fold change vs veh, SNHG1 /// SNORD22 /// SNORD25 /// SNORD26 /// SNORD27 /// SNORD28 /// SNORD29 /// SNORD31 / Fold change (Aza/veh), C12orf56 (ProbeSet 11735607_a_at) / Fold change (ACY-1035/veh), C12orf56 (ProbeSet 11735607_a_at) / Fold change (Aza/veh), FGFR1OP (ProbeSet 11751329_s_at) / Fold change (ACY-1035/veh), FGFR1OP (ProbeSet 11751329_s_at) / Fold change (Aza/veh), VPS36 (ProbeSet 11739960_a_at) / Fold change (ACY-1035/veh), VPS36 (ProbeSet 11739960_a_at) / RFU SYPL1 (11715823_x_at) / Fold change /veh SYPL1 (11715823_x_at) / RFU IGFBP7 (11715501_s_at) / Fold change /veh IGFBP7 (11715501_s_at) / RFU REEP3 (11722064_at) / Fold change /veh REEP3 (11722064_at) / RFU IGLL1 (11728026_x_at) / Fold change /veh IGLL1 (11728026_x_at): dose or concentration left out as unconfirmed
Settings: MV-4-11 cells, 48 hours

Nc1ccc(-c2cccs2)cc1NC(=O)c1ccc2c(c1)cc(C1CC1)n2CCN1CCOCC1 [ACY-1035]
RFU RGS16 (11746705_a_at): 52.79 RFU
